Experiments:
[1] = ultraviolet-induced erythema blocking test, oral (modified Winder method); format: in vivo, guinea pig (male albino); settings: Cavia porcellus, guinea pig, weighted scores 1.0-2.5 h after UV, dose which provides 50% inhibition
Protocol: The compounds of the present invention were evaluated for anti-inflammatoryactivity by the ultraviolet-induced erythema blocking test. The test procedures were a modification of the Winder method (Winder, C. V.; Wax, J.; Burr, V.; Been, M.; and Posiere, C. E.: A Study of Pharmacological Influences on Ultraviolet Erythema in Guinea Pigs. Arch. Int. Pharmacodyn. 116: 261, 1958). Male albino guinea pigs weighing 240-300 gm. were used. The hair on the back was clipped and chemically depilated 15-18 hours before each experiment. The animals were fasted overnight, and on the day of the experiment, were randomized and placed in clear plastic partitioned holders 10×20 cm. wide and 15 cm. high.
The compounds to be tested were suspended in 1% methyl cellulose in water, utilizing a tissue homogenizer. The suspensions were administered orally in a volume of 2.0 ml./kg. of body weight. Control animals received an equal amount of the vehicle.
The source of ultraviolet light was a Hanovia lamp (Kromayer-Model 10). A notebook reinforcement ring was placed upon the lens of the lamp to provide an area of contrast for grading purposes. The lens was then placed in contact with the skin of the guinea pig's back. Exposure time to UV was for a period of 4 seconds. Beginning one hour after exposure and thereafter at half-hour intervals for another 11/2 hours, the degree of resulting erythema was graded by an arbitrary scoring system based upon the degree of contrast and redness formed. Anti-inflammatory agents delay the development of the erythema and have their greatest effect at the initial grading periods. The scores were, therefore, weighted by factors of 4, 3, 2, and 1 at the 1.0, 1.5, 2.0, and 2.5 hour scoring times, respectively. The erythema was graded as follows:
Total scores from each treatment group of four guinea pigs were compared to the scores of the control group. The percent inhibition was calculated as follows: [formula] In the case of compounds showing inhibition, retesting was carried out at a plurality of doses to enable calculation of an ED50 for each such compound. "ED50 " designates that dose which provides 50% inhibition. Calculation of the ED50 was either by a standard linear regression method or by estimation from a dose-response curve of three or more points. The compounds so tested and their ED50 s were as follows: […]

[2] = carrageenin-induced hind paw inflammation; format: in vivo; settings: Rattus norvegicus
Protocol: Representative compounds were also evaluated for anti-inflammatory activity in the test method described by C. A. Winter at 111 Proc. Soc. Exp. Biol. Med., 544 (1962). In this method, inflammation is created by injecting carrageenin into the hind paw of rats. Test compounds are administered prior to injection to determine percent inhibition of the subsequent inflammation, in comparison with control animals.

[3] = analgesic activity, acetic acid-induced writhing; format: in vivo, mouse (albino male); settings: mouse, p.o., dose reducing writhing frequency by 50%; 30, 90, 180 minutes after administration
Protocol: Representative compounds were also evaluated for analgesic activity. The evaluation was conducted by using acetic acid-induced writhing in mice as the pain model. Clinically effective analgesis are effective when tested in this model: see Koster et al., "Acetic Acid for Analgesic Screening," 18 Fed. Proc. 412 (1959).
In a method similar to that reported by Koster et al., standard strain albino male mice weighing 20-22 grams were fasted overnight. The respective compound or vehicle (as control) was administered by gastric lavage (p.o.). Each compound was administered in an aqueous suspension of 1% methylcellulose in water. […] At 30, 90, and 180 minutes after administration, writhing was induced by the intraperitoneal administration of 55 mg./kg. of acetic acid (0.55%). Each treatment group consisted of 5 mice and separate groups were examined at each observation time. The total number of writhes for the treatment group were counted in a 10-minute observation period starting 5 minutes after the acetic acid administration. The treatment totals were compared to controls and a percent inhibition calculated as follows: [formula] […] An ED50, which represented the dose that would reduce the writhing frequency by 50%, was estimated from a dose-reponse curve of three or more points. A dose range was reported if only two points were availale for the dose response curve and they bracketed the 50% level. If data was available at 100 mg./kg., only, then the estimated ED50 was reported simply as less than 100 (<100).

[4] = adjuvant-induced arthritis test (paw volume); format: in vivo, rat (male albino); settings: rat, oral, dose 25 (unit not given)

Molecule | ED50 [1] [mg/kg] | inhibition in vivo at 50 mg/kg [2] [%] | Estimated ED50 [3] [mg/kg] | also measured
C#Cc1cccc(-c2ccccc2)c1 [3-biphenylylacetylene, 3-Biphenylylacetylene] | 7 | 32 | 50 to 100 | –
C#Cc1ccc(-c2ccccc2)cc1OC [(2-methoxy-4-phenylphenyl)acetylene, (2-Methoxy-4-phenylphenyl)acetylene] | 39 | 51 | – | inhibition in vivo at 1 mg/kg ([2]; 1 mg./kg.): 25%; inhibition in vivo at 10 mg/kg [2]: 7%
C#Cc1ccc(OCCCC)cc1C [(2-methyl-4-n-butoxyphenyl)acetylene, (2-Methyl-4-n-butoxyphenyl)acetylene] | 35 | – | – | inhibition in vivo at 25 mg/kg [2]: 9%
C#Cc1ccc(Oc2ccccc2)cc1C [(2-methyl-4-phenoxyphenyl)acetylene, (2-Methyl-4-phenoxyphenyl)acetylene] | 8 | – | < 100 | inhibition in vivo at 25 mg/kg [2]: 33%
C#Cc1ccc(-c2ccccc2)cc1C [(2-methyl-4-phenylphenyl)acetylene] | 20 | – | 60 | –
C#Cc1cc(C)c(Oc2ccccc2)c(C)c1 [(3,5-dimethyl-4-phenoxyphenyl)acetylene, (3,5-Dimethyl-4-phenoxyphenyl)acetylene] | 11 | 29 | < 100 | –
C#Cc1cccc(Oc2ccccc2F)c1 [(3-(2-fluorophenoxy)phenyl)acetylene, (3-(2-Fluorophenoxy)phenyl)acetylene] | 12 | 32 | – | –
C#Cc1ccc(C2CCCCC2)c(Cl)c1 [(3-chloro-4-cyclohexylphenyl)acetylene, (3-Chloro-4-cyclohexylphenyl)acetylene] | 1 | – | < 100 | –
C#Cc1ccc(-c2ccccc2)c(F)c1 [(3-fluoro-4-phenylphenyl)acetylene, (3-Fluoro-4-phenylphenyl)acetylene] | 0.5 | – | 10 | –
C#Cc1ccc(-c2ccccc2)c(OC)c1 [(3-methoxy-4-phenylphenyl)acetylene, (3-Methoxy-4-phenylphenyl)acetylene] | 0.6 | – | – | –
C#Cc1ccc(Oc2ccccc2)c(C)c1 [(3-methyl-4-phenoxyphenyl)acetylene, (3-Methyl-4-phenoxyphenyl)acetylene] | 10 | – | < 100 | inhibition in vivo at 10 mg/kg [2]: 16%
C#Cc1ccc(-c2ccccc2)c(C)c1 [(3-methyl-4-phenylphenyl)acetylene, (3-Methyl-4-phenylphenyl)acetylene] | 0.09 | 66 | 50 | inhibition in vivo at 3 mg/kg [2]: 37%; inhibition in vivo at 10 mg/kg [2]: 56%; inhibition in vivo at 30 mg/kg [2]: 56%
C#Cc1cccc(Oc2ccccc2)c1 [(3-phenoxyphenyl)acetylene, (3-Phenoxyphenyl)acetylene] | 13 | – | < 100 | inhibition in vivo at 10 mg/kg [2]: 7%
C#Cc1ccc(-c2ccc(F)cc2F)cc1 [(4-(2,4-difluorophenyl)phenyl)acetylene, (4-(2,4-Difluorophenyl)phenyl)acetylene] | 4 | – | 4 | inhibition in vivo at 25 mg/kg [2]: 31%
C#Cc1ccc(-c2cc(F)ccc2F)cc1 [(4-(2,5-difluorophenyl)phenyl)acetylene, (4-(2,5-Difluorophenyl)phenyl)acetylene] | 4.4 | – | 10 | inhibition in vivo at 25 mg/kg [2]: 43%
C#Cc1ccc(F)c(-c2ccccc2F)c1 [(4-Fluoro-3-(2-fluorophenyl)phenyl)acetylene] | 23 | 45 | – | inhibition in vivo at 3 mg/kg [2]: 13%; inhibition in vivo at 10 mg/kg [2]: 23%; inhibition in vivo at 30 mg/kg [2]: 43%
(2-(2,5-difluorophenyl)phenyl)acetylene | – | – | – | Percent Inhibition of Volume Increase, Day 7 ([4]; Day 7): 38%; Percent Inhibition of Volume Increase, Day 14 ([4]; Day 14): 15%

From US4301313A, “Halogenated ethynyl biphenyls” (Eli-Lilly and Company, priority 1974, dated 1981)
